Experimental data as given in the NIST ThermoML archive (doi:10.1016/j.jct.2014.07.001).

Assay: xn = mol fraction of the nth substance listed
Conditions: Drop volume

CCCC[n+]1ccccc1.F[B-](F)(F)F [1-butylpyridinium tetrafluoroborate] + CCO
surface tension liquid-gas [mN/m]
Conditions | 303.15 K | 313.15 K | 323.15 K
x1 = 0.05 | 22.16 | 21.51 | 20.72
x1 = 0.1021 | 22.72 | 22.17 | 21.41
x1 = 0.1959 | 23.54 | 23.25 | 22.74
x1 = 0.2902 | 24.72 | 24.48 | 24.26
x1 = 0.3922 | 26.57 | 26.27 | 26.25
x1 = 0.4914 | 28.89 | 28.68 | 28.54
x1 = 0.5953 | 31.85 | 31.63 | 31.45
x1 = 0.6898 | 35.04 | 34.75 | 34.53
x1 = 0.7903 | 38.62 | 38.26 | 38.01
x1 = 0.8879 | 42.28 | 41.85 | 41.5
x1 = 0.94 | 44.15 | 43.62 | 43.24
x1 = 1 | 46.3 | 45.69 | 45.11

CCCC[n+]1ccccc1.F[B-](F)(F)F [1-butylpyridinium tetrafluoroborate] + CO
surface tension liquid-gas [mN/m]
Conditions | 293.15 K | 303.15 K | 313.15 K | 323.15 K
x1 = 0.025 | 23.33 | 22.59 | 21.77 | 20.96
x1 = 0.0527 | 24.1 | 23.41 | 22.64 | 21.9
x1 = 0.0987 | 25.37 | 24.73 | 24.04 | 23.38
x1 = 0.1944 | 27.89 | 27.37 | 26.74 | 26.23
x1 = 0.2933 | 30.44 | 29.92 | 29.38 | 28.96
x1 = 0.3978 | 33.04 | 32.55 | 32.07 | 31.7
x1 = 0.4934 | 35.37 | 34.9 | 34.46 | 34.11
x1 = 0.5891 | 37.67 | 37.21 | 36.77 | 36.46
x1 = 0.6784 | 39.74 | 39.26 | 38.82 | 38.5
x1 = 0.7864 | 42.16 | 41.64 | 41.17 | 40.81
x1 = 0.8724 | 44.06 | 43.5 | 42.97 | 42.54
x1 = 0.93 | 45.33 | 44.76 | 44.17 | 43.69
x1 = 1 | 46.9 | 46.3 | 45.69 | 45.11
